Results: patent US12391737B2, “Soluble NPY2 receptor agonists” (Boehringer Ingelheim International GmbH, priority 2020, dated 2025)
pKi: −log10 of the molar value.

How the values were obtained:
[1] = molecular target: T1, Human Neuropeptide Y2 Receptor (Homo sapiens, UniProt P49146); assay: Radioligand binding competition assay (RLB); conditions: Table 3, 125I-PYY(1-36) competition; read-out: Ki
T1 construct: purchased CHEMICON HTS066M
T1 sequence (P49146 1-381): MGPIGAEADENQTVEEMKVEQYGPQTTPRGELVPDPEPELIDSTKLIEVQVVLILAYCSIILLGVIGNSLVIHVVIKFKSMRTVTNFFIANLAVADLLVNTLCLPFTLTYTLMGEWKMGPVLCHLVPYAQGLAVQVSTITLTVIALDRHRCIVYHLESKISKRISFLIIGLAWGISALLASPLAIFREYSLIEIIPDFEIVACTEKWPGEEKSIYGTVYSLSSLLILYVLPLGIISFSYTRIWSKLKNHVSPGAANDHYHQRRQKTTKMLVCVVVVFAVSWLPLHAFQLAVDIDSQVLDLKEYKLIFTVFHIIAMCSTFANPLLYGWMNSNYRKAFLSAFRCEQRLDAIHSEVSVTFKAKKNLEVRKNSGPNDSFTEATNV
Procedure, shortened: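 IC50 values come from sigmoidal dose-response fits of scintillation counts after peptides competed for radioligand binding at receptor membranes (0.5 μg protein/well). Incubation ran 2 h at room temperature in HEPES buffer, pH 7.4, with Mg2+, Ca2+ and 0.2% ovalbumin.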

Solubility determination = conditions: for Sol6: pH 6; for Sol7: pH 7
Procedure, shortened: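 Shake-flask style: 10 mg/ml peptide (TFA salt), 0.1 M sodium diphosphate pH 6.4/7.0, 600 rpm, 2 h, RT; filter; dilute 1 mg/ml in 50% MeCN; RP-UPLC, 0–100% B over 2 min, 50 °C. Solubility = sample/control area ratio. Final pH recorded.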

CC[C@H](C)[C@H](NC(=O)[C@H](CCC(=O)O)NC(=O)[C@H](CCC(=O)O)NC(=O)[C@@H]1CCCN1C(=O)[C@@H](NC(=O)[C@H](C)NC(=O)[C@H](C)NC(=O)[C@H](CCC(=O)O)NC(=O)[C@H](CCC(=O)O)NC(=O)[C@@H]1CCCN1C(=O)[C@H](CCCCNC(=O)CCCCCNC(=O)CC[C@H](NC(=O)CCCCCCCCCCCCCCCCC(=O)O)C(=O)O)NC(=O)[C@H](C)NC(=O)[C@@H]1CCCN1C(=O)[C@H](C)NC(=O)CC(C)C)[C@@H](C)O)C(=O)N[C@@H](CCC(N)=O)C(=O)N[C@@H](CCCNC(=N)N)C(=O)N[C@@H](Cc1ccc(O)cc1)C(=O)N[C@@H](Cc1ccc(O)cc1)C(=O)N[C@H](C(=O)N[C@@H](CO)C(=O)N[C@@H](CC(C)C)C(=O)N[C@@H](CCCNC(=N)N)C(=O)N[C@@H](Cc1c[nH]cn1)C(=O)N[C@@H](Cc1ccc(O)cc1)C(=O)N[C@@H](Cc1ccc(O)cc1)C(=O)N[C@@H](CC(N)=O)C(=O)N[C@@H](Cc1c[nH]c2ccccc12)C(=O)N[C@@H](CC(C)C)C(=O)N[C@H](C(=O)N[C@@H](CCCNC(=N)N)C(=O)N[C@@H](CCC(N)=O)C(=O)N[C@@H](CCCNC(=N)N)C(=O)N[C@@H](Cc1ccc(O)cc1)C(N)=O)[C@@H](C)O)C(C)C [Compound 36, N{alpha-4}-(3-methylbutanoyl)-N{epsilon-7}-(6-[(4S)-4-carboxy-4-(17-carboxyheptadecanamido)butanamido]hexanoyl)[4A,6A,7K,9E,11A,13T,17I,18Q,22V,28Y,30W,31L]-hPYY(4-36)]
pKi [1]: 8.90
Sol6 (Solubility determination): 0.0 mg/mL
Sol7 (Solubility determination): 0.4 mg/mL

CC[C@H](C)[C@H](NC(=O)[C@H](CCC(=O)O)NC(=O)[C@H](CCC(=O)O)NC(=O)[C@@H]1CCCN1C(=O)[C@H](CO)NC(=O)[C@H](C)NC(=O)[C@H](CC(=O)O)NC(=O)[C@H](CCC(=O)O)NC(=O)[C@H](CCC(=O)O)NC(=O)[C@@H]1CCCN1C(=O)[C@H](CCCCNC(=O)CCCCCNC(=O)CC[C@H](NC(=O)CCCCCCCCCCCCCCCCC(=O)O)C(=O)O)NC(=O)[C@H](CCC(=O)O)NC(=O)[C@@H]1CCCN1C(=O)[C@H](C)NC(=O)CC(C)C)C(=O)N[C@@H](CCC(N)=O)C(=O)N[C@@H](CCCNC(=N)N)C(=O)N[C@@H](Cc1ccc(O)cc1)C(=O)N[C@@H](Cc1ccc(O)cc1)C(=O)N[C@H](C(=O)N[C@@H](CCC(N)=O)C(=O)N[C@@H](CC(C)C)C(=O)N[C@@H](CCCNC(=N)N)C(=O)N[C@@H](Cc1c[nH]cn1)C(=O)N[C@@H](Cc1ccc(O)cc1)C(=O)N[C@@H](Cc1ccc(O)cc1)C(=O)N[C@@H](CC(N)=O)C(=O)N[C@@H](Cc1c[nH]c2ccccc12)C(=O)N[C@@H](CC(C)C)C(=O)N[C@H](C(=O)N[C@@H](CCCNC(=N)N)C(=O)N[C@@H](CCC(N)=O)C(=O)N[C@@H](CCCNC(=N)N)C(=O)N[C@@H](Cc1ccc(O)cc1)C(N)=O)[C@@H](C)O)C(C)C [Compound 93, N{alpha-4}-(3-methylbutanoyl)-N{epsilon-7}-(6-[(4S)-4-carboxy-4-(17-carboxyheptadecanamido)butanamido]hexanoyl)-[4A,7K,9E,17I,18Q,22V,23Q,28Y,30W,31L]-hPYY(4-36)]
pKi [1]: 8.77
Sol6 (Solubility determination): 9.4 mg/mL
Sol7 (Solubility determination): 9.7 mg/mL

CC[C@H](C)[C@H](NC(=O)[C@H](CCC(=O)O)NC(=O)[C@H](CCC(=O)O)NC(=O)[C@@H]1CCCN1C(=O)[C@H](C)NC(=O)[C@H](C)NC(=O)[C@H](CC(=O)O)NC(=O)[C@H](CCC(=O)O)NC(=O)[C@H](CCC(=O)O)NC(=O)[C@@H]1CCCN1C(=O)[C@H](CCCCNC(=O)CCCCCNC(=O)CC[C@H](NC(=O)CCCCCCCCCCCCCCCCC(=O)O)C(=O)O)NC(=O)[C@H](CCC(=O)O)NC(=O)[C@@H]1CCCN1C(=O)[C@H](C)NC(=O)CC(C)C)C(=O)N[C@@H](CCC(N)=O)C(=O)N[C@@H](CCCNC(=N)N)C(=O)N[C@@H](Cc1ccc(O)cc1)C(=O)N[C@@H](Cc1ccc(O)cc1)C(=O)N[C@H](C(=O)N[C@@H](CO)C(=O)N[C@@H](CC(C)C)C(=O)N[C@@H](CCCNC(=N)N)C(=O)N[C@@H](Cc1c[nH]cn1)C(=O)N[C@@H](Cc1ccc(O)cc1)C(=O)N[C@@H](Cc1ccc(O)cc1)C(=O)N[C@@H](CC(N)=O)C(=O)N[C@@H](Cc1c[nH]c2ccccc12)C(=O)N[C@@H](CC(C)C)C(=O)N[C@H](C(=O)N[C@@H](CCCNC(=N)N)C(=O)N[C@@H](CCC(N)=O)C(=O)N[C@@H](CCCNC(=N)N)C(=O)N[C@@H](Cc1ccc(O)cc1)C(N)=O)[C@@H](C)O)C(C)C [Compound 170, N{alpha-4}-(3-methylbutanoyl)-N{epsilon-7}-(6-[(4S)-4-carboxy-4-(17-carboxyheptadecanamido)butanamido]hexanoyl)-[4A,7K,9E,13A,17I,18Q,22V,28Y,30W,31L]-hPYY(4-36)]
pKi [1]: 8.64
Sol6 (Solubility determination): >10.0 mg/mL
Sol7 (Solubility determination): 10.0 mg/mL

CC[C@H](C)[C@H](NC(=O)[C@H](Cc1ccc(O)cc1)NC(=O)[C@H](Cc1ccc(O)cc1)NC(=O)[C@H](CCCNC(=N)N)NC(=O)[C@H](CCC(N)=O)NC(=O)[C@H](CC(C)C)NC(=O)[C@H](CCC(=O)O)NC(=O)[C@H](CCC(=O)O)NC(=O)[C@@H]1CCCN1C(=O)[C@@H](NC(=O)[C@H](C)NC(=O)[C@H](CC(=O)O)NC(=O)[C@H](CCC(=O)O)NC(=O)[C@H](CCC(=O)O)NC(=O)[C@@H]1CCCN1C(=O)[C@H](CCCCNC(=O)CCCCCNC(=O)CC[C@H](NC(=O)CCCCCCCCCCCCCCCCC(=O)O)C(=O)O)NC(=O)[C@H](CCC(=O)O)NC(=O)[C@@H]1CCCN1C(=O)[C@H](C)NC(=O)CC(C)C)[C@@H](C)O)C(=O)N[C@@H](CO)C(=O)N[C@@H](CC(C)C)C(=O)N[C@@H](CCCNC(=N)N)C(=O)N[C@@H](Cc1c[nH]cn1)C(=O)N[C@@H](Cc1ccc(O)cc1)C(=O)N[C@@H](Cc1ccc(O)cc1)C(=O)N[C@@H](CC(N)=O)C(=O)N[C@@H](Cc1c[nH]c2ccccc12)C(=O)N[C@@H](CC(C)C)C(=O)N[C@H](C(=O)N[C@@H](CCCNC(=N)N)C(=O)N[C@@H](CCC(N)=O)C(=O)N[C@@H](CCCNC(=N)N)C(=O)N[C@@H](Cc1ccc(O)cc1)C(N)=O)[C@@H](C)O [Compound 66, N{alpha-4}-(3-methylbutanoyl)-N{epsilon-7}-(6-[(4S)-4-carboxy-4-(17-carboxyheptadecanamido)butanamido]hexanoyl)-[4A,7K,9E,13T,18Q,22I,28Y,30W,31L]-hPYY(4-36)]
pKi [1]: 8.63
Sol6 (Solubility determination): 9.2 mg/mL
Sol7 (Solubility determination): 9.2 mg/mL
